What all share (assay type): cell-based
Experiment [1] has as its system Staph. epidermidis L147 ATCC 12228 (coagulase negative). The experiment can be described thus: MIC broth dilution test, Staph. epidermidis. The following applies: Isosensitest broth, 24 h. Here is the method: (§1) Culture media and growth conditions for MIC (minimal inhibitory concentration) determinations were as follows: Isosensitest broth (Oxoid), 24 h, for staphylococci, Strep. faecalis and Gram-negative bacteria ( Escherichia coli); Todd-Hewitt broth (Difco), 24 h for other streptococcal species; GC base broth (Difco)+1% Isovitalex (BBL), 48 h, CO2 -enriched atmosphere for Neisseria gonorrhoeae; Brain Heart broth (Difco)+1% Supplement C (Difco), 48 h for Haemophilus influenzae; Inocula were of about 10^4 -10^5 colony-forming units/ml for broth dilution MICs.

The next experiment relates to Strep. pyogenes L49 C203. As to the kind of experiment: MIC broth dilution test, Strep. pyogenes. The following applies: Todd-Hewitt broth, 24 h. Here is the method: as §1
The subject of experiment [2] is Strip. pneumoniae L44 UC41. The experiment can be described thus: MIC broth dilution test, Strep. pneumoniae. Particulars: Todd-Hewitt broth, 24 h. As for the experimental part:
as §1

In experiment [3] the test system is Strep. faecalis L149 ATCC 7080. The experiment can be described thus: MIC broth dilution test, Strep. faecalis. Particulars: Isosensitest broth, 24 h. As for the experimental part:
as §1

Experiment [4] has as its system Strep. mitis L796 (clinical isolate). The experiment can be described thus: MIC broth dilution test, Strep. mitis. Particulars: Todd-Hewitt broth, 24 h. Here is the method:
as §1

Experiment [5] deals with Neisseria gonorrhoeae L997 ISM68/126. The experiment can be described thus: MIC broth dilution test, Neisseria gonorrhoeae. The following applies: GC base broth + 1% Isovitalex, 48 h, CO2-enriched atmosphere. Here is the method:
as §1

Experiment [6] has as its system Haemophilus influenzae L970 type b ATCC 19418. The experiment can be described thus: MIC broth dilution test, Haemophilus influenzae. Particulars: Brain Heart broth + 1% Supplement C, 48 h. Here is the method: as §1
Experiment [7] has as its system Staph. haemolyticus L602 (clinical isolate). The experiment can be described thus: MIC broth dilution test, Staph. haemolyticus. Particulars: Isosensitest broth, 24 h. As for the experimental part: as §1

The structures appear in SMILES notation.

As to `CC(=O)N[C@H]1[C@H](OC2c3ccc(c(Cl)c3)Oc3cc4cc(c3O[C@@H]3O[C@H](CO)[C@@H](O)[C@H](O)[C@H]3NC(=O)CCCCCCC(C)C)Oc3ccc(cc3Cl)CC3NC(=O)C(N)c5ccc(O)c(c5)Oc5cc(O)cc(c5)C(NC3=O)C(=O)NC4C(=O)NC3C(=O)NC2C(=O)NC(C(=O)O)c2cc(O)cc(O)c2-c2cc3ccc2O)O[C@H](CO)[C@@H](O)[C@@H]1O` (stereo partly shown) [DM-TA2-2, de-mannosyl teicoplanin complex component 2], the M.I.C. in experiment [1] amounted to 0.063 microgram/ml; with Strep. pyogenes L49 C203, 0.063 microgram/ml; in experiment [2] it was 0.063 microgram/ml; in experiment [3], 0.063 microgram/ml; in experiment [4], 0.063 microgram/ml; in experiment [5] it was 32 microgram/ml. Moreover, the values for the M.I.C. in experiment [6] and in experiment [7] were 64 microgram/ml and 0.5 microgram/ml, respectively.

On to `CC(=O)N[C@H]1[C@H](OC2c3ccc(c(Cl)c3)Oc3cc4cc(c3O[C@@H]3O[C@H](CO)[C@@H](O)[C@H](O)[C@H]3NC(=O)CCCCCCCC(C)C)Oc3ccc(cc3Cl)CC3NC(=O)C(N)c5ccc(O)c(c5)Oc5cc(O)cc(c5)C(NC3=O)C(=O)NC4C(=O)NC3C(=O)NC2C(=O)NC(C(=O)O)c2cc(O)cc(O)c2-c2cc3ccc2O)O[C@H](CO)[C@@H](O)[C@@H]1O` (stereo partly shown) [DM-TA2-5, de-mannosyl teicoplanin complex component 5], for which the M.I.C. in experiment [1] stood at 0.063 microgram/ml; in the experiment with Strep. pyogenes L49 C203, 0.063 microgram/ml; in experiment [2], 0.063 microgram/ml; in experiment [3], 0.063 microgram/ml; in experiment [4] it was 0.063 microgram/ml; in experiment [5], 32 microgram/ml. Besides, the M.I.C. is reported as 32 microgram/ml in experiment [6] and 0.25 microgram/ml in experiment [7].

Regarding `CCC(C)CCCCCCC(=O)N[C@H]1[C@H](Oc2c3cc4cc2Oc2ccc(cc2Cl)C(O[C@@H]2O[C@H](CO)[C@@H](O)[C@H](O)[C@H]2NC(C)=O)C2NC(=O)C(NC(=O)C4NC(=O)C4NC(=O)C(Cc5ccc(c(Cl)c5)O3)NC(=O)C(N)c3ccc(O)c(c3)Oc3cc(O)cc4c3)c3ccc(O)c(c3)-c3c(O)cc(O)cc3C(C(=O)O)NC2=O)O[C@H](CO)[C@@H](O)[C@@H]1O` (stereo partly shown) [DM-TA2-4, de-mannosyl teicoplanin complex component 4], the M.I.C. in experiment [1] is 0.063 microgram/ml; in the experiment on Strep. pyogenes L49 C203, 0.063 microgram/ml; in experiment [2] it was 0.063 microgram/ml; in experiment [3] it was 0.063 microgram/ml; in experiment [5], 32 microgram/ml; in experiment [6] it was 64 microgram/ml. In experiment [7], the M.I.C. was found to be 0.5 microgram/ml.

Regarding `CCCCCCCCCC(=O)N[C@H]1[C@H](Oc2c3cc4cc2Oc2ccc(cc2Cl)C(O[C@@H]2O[C@H](CO)[C@@H](O)[C@H](O)[C@H]2NC(C)=O)C2NC(=O)C(NC(=O)C4NC(=O)C4NC(=O)C(Cc5ccc(c(Cl)c5)O3)NC(=O)C(N)c3ccc(O)c(c3)Oc3cc(O)cc4c3)c3ccc(O)c(c3)-c3c(O)cc(O)cc3C(C(=O)O)NC2=O)O[C@H](CO)[C@@H](O)[C@@H]1O` (stereo partly shown) [DM-TA2-3, de-mannosyl teicoplanin complex component 3], the M.I.C. in experiment [1] was 0.063 microgram/ml; in the experiment with Strep. pyogenes L49 C203 it was 0.063 microgram/ml; in experiment [2], 0.063 microgram/ml; in experiment [3] it was 0.063 microgram/ml; in experiment [4] it was 0.063 microgram/ml; in experiment [5], 32 microgram/ml. Moreover, the values for the M.I.C. in experiment [6] and in experiment [7] were 64 microgram/ml and 0.5 microgram/ml, respectively.
